Test results: US11780821B2, “Inhibitors of fibroblast activation protein” (Praxis Biotech LLC, priority 2017, dated 2023)
Where two headings read alike, the source gives them in different places.

Experiments:
[1] = molecular target: T1, recombinant human FAPα (rhFAPα) (Homo sapiens, UniProt Q12884); test: FAPα enzymatic endopeptidase (collagenase) activity assay; type: biochemical; settings: DQ collagen substrate, read-out: rhFAPα (endo IC50)
T1 construct: purchased R&S system (so in the source)
T1 sequence (Q12884 1-760): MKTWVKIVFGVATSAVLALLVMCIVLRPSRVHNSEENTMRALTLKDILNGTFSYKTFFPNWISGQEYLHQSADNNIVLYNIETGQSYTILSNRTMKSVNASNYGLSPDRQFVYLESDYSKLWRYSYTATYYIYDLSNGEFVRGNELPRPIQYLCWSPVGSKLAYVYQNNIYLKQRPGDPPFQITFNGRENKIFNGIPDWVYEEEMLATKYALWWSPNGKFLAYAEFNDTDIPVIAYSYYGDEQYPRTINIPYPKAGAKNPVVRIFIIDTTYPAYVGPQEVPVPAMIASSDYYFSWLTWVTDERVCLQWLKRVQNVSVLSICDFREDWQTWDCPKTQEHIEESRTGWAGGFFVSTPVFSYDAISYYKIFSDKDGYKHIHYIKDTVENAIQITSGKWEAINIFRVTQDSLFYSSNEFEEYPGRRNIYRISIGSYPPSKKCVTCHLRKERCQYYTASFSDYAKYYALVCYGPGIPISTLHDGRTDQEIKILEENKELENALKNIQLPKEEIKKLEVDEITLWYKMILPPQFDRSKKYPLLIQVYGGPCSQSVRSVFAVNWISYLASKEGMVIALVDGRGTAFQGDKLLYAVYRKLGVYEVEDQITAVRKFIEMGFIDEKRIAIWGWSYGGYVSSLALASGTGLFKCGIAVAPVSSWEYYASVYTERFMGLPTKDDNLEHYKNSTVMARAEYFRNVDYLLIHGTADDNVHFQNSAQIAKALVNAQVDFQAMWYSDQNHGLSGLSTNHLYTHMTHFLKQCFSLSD
Experimental: FAPα enzymatic endopeptidase (collagenase) activity assay. […] All measurements were performed as a single point.

[2] = molecular target: T2, circulating FAPα from hamster plasma (Mesocricetus auratus, UniProt A0ABM2XF29); test: Ex vivo inhibition of circulating FAPα activity from hamster plasma; type: biochemical, Golden Syrian hamster
T2 sequence (A0ABM2XF29 24-761): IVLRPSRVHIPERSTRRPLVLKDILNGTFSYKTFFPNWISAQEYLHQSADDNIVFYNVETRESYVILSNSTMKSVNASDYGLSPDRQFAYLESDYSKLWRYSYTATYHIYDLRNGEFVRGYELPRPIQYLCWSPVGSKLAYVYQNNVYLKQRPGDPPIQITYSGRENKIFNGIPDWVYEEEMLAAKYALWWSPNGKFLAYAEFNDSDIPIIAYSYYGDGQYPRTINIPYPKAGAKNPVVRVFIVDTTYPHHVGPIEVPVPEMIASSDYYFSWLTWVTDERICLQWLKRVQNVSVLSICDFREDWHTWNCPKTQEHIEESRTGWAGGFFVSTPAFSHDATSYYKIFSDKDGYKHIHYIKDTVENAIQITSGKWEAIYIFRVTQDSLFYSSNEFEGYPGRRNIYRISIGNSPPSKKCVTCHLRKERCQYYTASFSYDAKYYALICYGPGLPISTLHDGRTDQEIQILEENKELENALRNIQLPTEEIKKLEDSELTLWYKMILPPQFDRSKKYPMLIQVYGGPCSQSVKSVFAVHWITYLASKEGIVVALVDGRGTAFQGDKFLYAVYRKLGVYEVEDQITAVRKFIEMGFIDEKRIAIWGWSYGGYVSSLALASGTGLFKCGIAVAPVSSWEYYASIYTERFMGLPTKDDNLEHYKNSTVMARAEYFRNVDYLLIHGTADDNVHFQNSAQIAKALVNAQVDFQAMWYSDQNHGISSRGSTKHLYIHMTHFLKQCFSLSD
Experimental: Male Golden Syrian hamsters were provided by National Laboratory Animal Center (NLAC) in Taiwan. The animals were maintained in a hygienic environment under controlled temperature (20-24° C.) and humidity (50%-80%) with 12 hours light/dark cycles. Free access to standard lab diet [MFG (Oriental Yeast Co., Ltd. Japan)] and autoclaved tap water were granted. All aspects of this work including housing, experimentation and disposal of animals were performed in general accordance with the “Guide for the Care and Use of Laboratory Animals: Eighth Edition” (National Academies Press, Washington, D.C., 2011). In addition, the animal care and use protocol was reviewed and approved by the IACUC at Pharmacology Discovery Services Taiwan, Ltd. Immediately after the sacrifice of hamsters, blood samples were collected via terminal cardiac puncture in tubes coated with EDTA-K2, mixed gently, then kept on ice and centrifuged at 2,500×g for 15 minutes at 4° C. After plasma separation, samples were stored at −80° C. in aliquots of 300 μL.
To assay exemplary compounds in hamster plasma, a similar protocol as described for human plasma was performed diluting thawed plasma 1:2 in cFAP buffer. In a 96-well black plate, 5 μl of diluted hamster plasma were mixed with 35 μl of the same buffer and 10 μl of exemplary test compounds at different concentrations or vehicle (DMSO).
Exemplary test compounds were allowed to interact with the enzyme for 15 minutes at 37° C. After pre-incubation, 50 μl of 200 μM PRXS-AMC substrate were added to the all mixtures. All reactions were carried out for 1 h at 37° C. protected from light. AMC release was detected measuring fluorescence at an excitation/emission wavelength of 380/460 nm using a Multifunction Microplate Reader. All measurements were carried out as single point.

[3] = read-out: FAPα activity in hamster plasma (PRXS-AMC) IC50, PRXS-AMC substrate
[4] = PRXS-AMC substrate, read-out: FAPα activity in hamster plasma (PRXS-AMC) IC50

| SMILES | IC50 [1] | IC50 [2, 3] | IC50 [2, 4] |
| --- | --- | --- | --- |
| N#C[C@@H]1CC(F)(F)CN1C(=O)CNC(=O)c1c[nH]c(=O)c(-c2ccccc2)c1 [Compound 14, (S)—N-(2-(2-cyano-4,4-difluoropyrrolidin-1-yl)-2-oxoethyl)-6-oxo-5-phenyl-1,6-dihydropyridine-3-carboxamide] | < 1000 nM |  |  |
| N#C[C@@H]1CC(F)(F)CN1C(=O)CNC(=O)c1ccncc1-c1ccc(F)cc1 [Compound 52, (S)—N-(2-(2-cyano-4,4-difluoropyrrolidin-1-yl)-2-oxoethyl)-3-(4-fluorophenyl)isonicotinamide] |  | < 1000 nM |  |
| N#C[C@@H]1CC(F)(F)CN1C(=O)CNC(=O)c1c[nH]c(=O)cc1-c1ccc(F)cc1 [Compound 109, (S)—N-(2-(2-cyano-4,4-difluoropyrrolidin-1-yl)-2-oxoethyl)-4-(4-fluorophenyl)-6-oxo-1,6-dihydropyridine-3-carboxamide] | < 1000 nM |  | < 1000 nM |
| C=C(c1ccccc1)c1cnccc1C(=O)NCC(=O)N1CC(F)(F)C[C@H]1C#N [Compound 122, (S)—N-(2-(2-cyano-4,4-difluoropyrrolidin-1-yl)-2-oxoethyl)-3-(1-phenylvinyl)isonicotinamide] |  |  | < 1000 nM |
| N#C[C@@H]1CC(F)(F)CN1C(=O)CNC(=O)c1ccncc1-c1ccccc1 [Compound 13, (S)—N-(2-(2-cyano-4,4-difluoropyrrolidin-1-yl)-2-oxoethyl)-3-phenylisonicotinamide] | < 1000 nM | < 1000 nM |  |
| N#C[C@@H]1CC(F)(F)CN1C(=O)CNC(=O)c1ccncc1C1=CCNCC1 [Compound 105, (S)—N-(2-(2-cyano-4,4-difluoropyrrolidin-1-yl)-2-oxoethyl)-1′,2′,3′,6′-tetrahydro-[3,4′-bipyridine]-4-carboxamide 2,2,2-trifluoroacetate] | < 1000 nM | < 1000 nM |  |
| N#C[C@@H]1CC(F)(F)CN1C(=O)CNC(=O)c1ccncc1C1CC1 [Compound 24, (S)—N-(2-(2-cyano-4,4-difluoropyrrolidin-1-yl)-2-oxoethyl)-3-cyclopropylisonicotinamide] | < 1000 nM | < 1000 nM |  |
| N#C[C@@H]1CC(F)(F)CN1C(=O)CNC(=O)c1c[nH]c(=O)c2ccccc12 [Example 1, (S)—N-(2-(2-cyano-4,4-difluoropyrrolidin-1-yl)-2-oxoethyl)-1-oxo-1,2-dihydroisoquinoline-4-carboxamide] | < 1000 nM |  |  |
